Earlier results as cited in PMC10011554, “BET inhibitor trotabresib in heavily pretreated patients with solid tumors and diffuse large B-cell lymphomas” (Nature Communications, 2023).
Where two headings read alike, the source gives them in different places.

Tests used:
[1] = system: relapsed or refractory lymphomas; settings: cited from earlier work
[2] = system: SU-DHL-4 (DOX-R); parameters: method as in Report CC-90010-Pharm-1018; settings: Table 2, ref Report CC-90010-Pharm-1018, read-out: absolute IC50, proliferation; cited from earlier work
[3] = system: WSU-DLCL2 (GCB DLBCL); parameters: method as in Report CC-90010-Pharm-1018; settings: WSU-DLCL2, Table 2, ref Report CC-90010-Pharm-1018; read-out: absolute IC50, proliferation; cited from earlier work
[4] = system: U-2932 (ABC DLBCL); parameters: method as in Report CC-90010-Pharm-1018; settings: U-2932, Table 2, ref Report CC-90010-Pharm-1018; read-out: absolute IC50, proliferation; cited from earlier work
[5] = system: OCI-LY-10 (DOX-R); parameters: method as in Report CC-90010-Pharm-1018; settings: Table 2, ref Report CC-90010-Pharm-1018, read-out: absolute IC50, proliferation; cited from earlier work
[6] = system: U-2932 (DOX-R); parameters: method as in Report CC-90010-Pharm-1018; settings: Table 2, ref Report CC-90010-Pharm-1018, read-out: absolute IC50, proliferation; cited from earlier work
[7] = system: SU-DHL-4 (GCB DLBCL); parameters: method as in Report CC-90010-Pharm-1018; settings: SU-DHL-4, Table 2, ref Report CC-90010-Pharm-1018; read-out: absolute IC50, proliferation; cited from earlier work
[8] = system: OCI-LY-10 (ABC DLBCL); parameters: method as in Report CC-90010-Pharm-1018; settings: OCI-LY-10, Table 2, ref Report CC-90010-Pharm-1018; read-out: absolute IC50, proliferation; cited from earlier work
[9] = system: WSU-DLCL2 (DOX-R); parameters: method as in Report CC-90010-Pharm-1018; settings: Table 2, ref Report CC-90010-Pharm-1018, read-out: absolute IC50, proliferation; cited from earlier work
[10] = parameters: method as in Amorim, 2016; settings: ref Amorim, 2016; cited from earlier work
[11] = system: GBM3 GBM PDX; parameters: method as in Unpublished data from Celgene Corporation; settings: GBM3, TMZ 50 mg/kg IP x 3 Q2 weeks alone, ref Unpublished data from Celgene Corporation; cited from earlier work
[12] = system: basal cell carcinoma; settings: cited from earlier work
[13] = cited from earlier work
[14] = ref ODOMZO European Public Assessment Report

In the case of `Cc1noc2c1-c1ccccc1C(c1ccc(Cl)cc1)=N[C@H]2CC(N)=O` [CPI-0610], the objective responses ([1]; out of 64 relapsed or refractory lymphomas, ref Blum, 2018) is given as 5 patients.
In the case of `COc1cccc2c1C(=O)c1c(O)c3c(c(O)c1C2=O)C[C@@](O)(C(=O)CO)C[C@@H]3O[C@H]1C[C@H](N)[C@H](O)[C@H](C)O1` [Doxorubicin, reference compound], the IC50 [2] is given as 3.57 µM, the IC50 [3] is given as 0.01 µM and the IC50 [4] is given as 0.02 µM. The IC50 [5] was 3.66 µM, the IC50 [6] was 1.87 µM and the IC50 [7] was about 0.01 µM. For the same molecule, the IC50 [8] was 0.041 µM and the IC50 [9] was 3.27 µM.
In the case of `Cc1sc2c(c1C)C(c1ccc(Cl)cc1)=N[C@@H](CC(=O)Nc1ccc(O)cc1)c1nnc(C)n1-2` [OTX-015], the “Grade 3-4 thrombocytopenia” value [10] is listed as 58%, the “median time to thrombocytopenia nadir (Grade 4) from starting treatment” value [10] is listed as 18 days and the toxic effect anaemia [10] is listed as 91%. For the same molecule, the toxic effect diarrhea [10] was 47%, the toxic effect fatigue [10] was 27% and the toxic effect nausea [10] was 24%. The toxic effect neutropenia [10] was 51% and the toxic effect thrombocytopenia [10] was 96%.
For `Cc1sc2c(c1C)C(c1ccc(Cl)cc1)=N[C@@H](CC(=O)NCCCN1CCN(C)CC1)c1nnc(C)n1-2` [RG6146], the ORR ([1]; relapsed/refractory MYC-expressing DLBCL patients, ref Caimi, 2017) is given as 11%.
In the case of `Cn1nnc2c(C(N)=O)ncn2c1=O` [TMZ, temozolomide, reference compound], the TGI [11] is listed as 3%.
For `Cc1c(C(=O)Nc2ccc(N3C[C@@H](C)O[C@@H](C)C3)nc2)cccc1-c1ccc(OC(F)(F)F)cc1` [sonidegib], the “independently reviewed response rate” value ([12]; locally advanced BCC, ref Migden, 2015a) is listed as 58%, the “LaBCC with investigator-assessed responses lasting at least six months” value ([12]; ref Migden, 2015a) is listed as 39% and the “subjects discontinued for adverse reactions” value [13, 14] is listed as 28%. The “subjects with dose adjustments for adverse reactions” value [13, 14] was 32%.
In the case of `CS(=O)(=O)c1ccc(C(=O)Nc2ccc(Cl)c(-c3ccccn3)c2)c(Cl)c1` [vismodegib], the response rate ([12]; locally advanced BCC, ref ERIVEDGE European Public Assessment Report) is given as 42.9%, the “independently reviewed response rate” value ([12]; metastatic BCC, ref ERIVEDGE European Public Assessment Report) is given as 30.3% and the “median duration of response” value ([12]; ref ERIVEDGE European Public Assessment Report) is given as 7.6 months. For the same molecule, the “subjects who withdrew from treatment due to adverse events” value ([13]; at least 12 months follow up, ref Bassett-Seguin, 2015) was 36%.
